Test systems include UACC-62 melanoma; OVCAR-4 ovarian; ACHN renal; UACC-257 melanoma; BT-549 breast; A549 NSCLC; SK-OV-3 ovarian; CAKI-1 renal; SNB-19 CNS; SN12C renal.
Holding throughout (assay): NCI tumour cell line growth inhibition, 48 h

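Interpolation was linear, between the two tested concentrations surrounding the appropriate level; five concentrations were tested over 48 hours in 96-well plates. TGI is the concentration that stops growth completely.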 A value given as a limit tells only on which side of the number the result lay.

Consider `O=C(OCC1OC(n2nc(Cn3nnc(-c4cccnc4)n3)n(-c3cccc4ccccc34)c2=S)C(OC(=O)c2ccccc2)C1OC(=O)c1ccccc1)c1ccccc1` (stereo not given), for which the TGI with UACC-62 melanoma, in the assay on OVCAR-4 ovarian, with ACHN renal, in the assay with UACC-257 melanoma, in the assay with BT-549 breast and in the assay with A549 NSCLC was more than 100 µM in each case. For the same molecule, the TGI in the assay on SK-OV-3 ovarian, with CAKI-1 renal, in the assay on SNB-19 CNS and in the assay with SN12C renal was more than 100 µM in each case.
Take `N#Cc1c(-c2ccccc2)c2c([nH]c1=O)-c1cc([N+](=O)[O-])ccc1CCC2`: the TGI with UACC-62 melanoma is 37.3 µM; in the assay with OVCAR-4 ovarian it was more than 100 µM; in the assay with ACHN renal, 83.6 µM; in the assay with UACC-257 melanoma, more than 100 µM; in the assay with BT-549 breast it was 42.7 µM; in the assay with A549 NSCLC, more than 100 µM. Further, the TGI in the assay on SK-OV-3 ovarian, with CAKI-1 renal, with SNB-19 CNS and in the assay with SN12C renal was more than 100 µM each time.
Consider `O=C1c2cccc(O)c2C(=O)c2c(OC3OC(CO)C(O)C(O)C3O)cccc21` (stereo not given), for which the TGI in the assay with UACC-62 melanoma was more than 100 µM; with OVCAR-4 ovarian, 32.1 µM; with ACHN renal it was more than 100 µM; in the assay with UACC-257 melanoma it was 39.9 µM; with BT-549 breast, 93.3 µM; in the assay with A549 NSCLC it was more than 100 µM. Further, the TGI in the assay on SK-OV-3 ovarian, in the assay with CAKI-1 renal, with SNB-19 CNS and in the assay with SN12C renal was more than 100 µM in each case.
Turning to `C=CC(=O)N1C/C(=C\c2ccc(Cl)cc2)C(=O)/C(=C/c2ccc(Cl)cc2)C1`, the TGI with UACC-62 melanoma is 1.02 µM; in the assay on OVCAR-4 ovarian it was 1.22 µM; with ACHN renal it was 1.02 µM; in the assay with UACC-257 melanoma, 3.65 µM; with BT-549 breast, 1.09 µM; in the assay with A549 NSCLC, 1.64 µM. The TGI in the assay on SK-OV-3 ovarian is 1.71 µM; with CAKI-1 renal, 1.32 µM; in the assay with SNB-19 CNS it was 2.67 µM; in the assay with SN12C renal, 0.704 µM.
Turning to `COP(=O)(OC)C(Nc1ccc(Cc2ccc(NC(c3ccco3)P(=O)(OC)OC)cc2)cc1)c1ccco1` (stereo not given), the TGI in the assay with UACC-62 melanoma was 50.5 µM; in the assay with OVCAR-4 ovarian it was more than 100 µM; with ACHN renal, 89.9 µM; in the assay on UACC-257 melanoma, more than 100 µM; with BT-549 breast, 60 µM; with A549 NSCLC, more than 100 µM. Besides, the TGI in the assay on SK-OV-3 ovarian was 73.6 µM; in the assay on CAKI-1 renal, 86.3 µM; in the assay on SNB-19 CNS, 71.3 µM; in the assay on SN12C renal, more than 100 µM.
`C[n+]1c(/C=C/c2ccc(O)c3ncccc23)[se]c2ccccc21`: the TGI in the assay with UACC-62 melanoma was 18.3 µM; in the assay on OVCAR-4 ovarian, more than 47 µM; in the assay on ACHN renal, 8.54 µM; with UACC-257 melanoma, 11.1 µM; in the assay on BT-549 breast, 35 µM; with A549 NSCLC, 42 µM. Also, the TGI in the assay with SK-OV-3 ovarian came to 23.4 µM; in the assay with CAKI-1 renal it was 26 µM; with SNB-19 CNS it was 51.3 µM; in the assay on SN12C renal, 16.1 µM.
For the molecule `Clc1ccc(/C(=C\c2ccccc2)Cn2ccnc2)cc1`, the TGI with UACC-62 melanoma was 35.8 µM; in the assay with OVCAR-4 ovarian, more than 100 µM; in the assay with ACHN renal it was 67.6 µM; in the assay with UACC-257 melanoma, 47.8 µM; in the assay with BT-549 breast, 38 µM; in the assay with A549 NSCLC it was 49.4 µM. Moreover, the TGI in the assay on SK-OV-3 ovarian worked out at 36.3 µM; with CAKI-1 renal, 30.1 µM; in the assay on SNB-19 CNS it was 49.4 µM; with SN12C renal it was 89.2 µM.
For `CCOP(=O)(OCC)OC1CC(n2cc(C)c(=O)n(C)c2=O)OC1CO[Si](C)(C)C(C)(C)C` (stereo not given), the TGI in the assay on UACC-62 melanoma, in the assay on OVCAR-4 ovarian, with ACHN renal, in the assay on UACC-257 melanoma, in the assay with BT-549 breast and in the assay on A549 NSCLC was more than 100 µM in each case. Besides, the TGI with SK-OV-3 ovarian, with CAKI-1 renal, with SNB-19 CNS and with SN12C renal was more than 100 µM each time.
Take `COC1C(O)C(O[C@H]2CC[C@@]3(C)C(CC[C@@H]4[C@@H]3CC[C@]3(C)[C@@H](C(C)OC5OC(CO)C(O)C(O)C5O)CC[C@]43O)C2)OC(C)C1OC1OC(CO)C(O)C(O)C1O` (stereo not given in full): the TGI with UACC-62 melanoma, in the assay with OVCAR-4 ovarian, with ACHN renal, in the assay on UACC-257 melanoma, in the assay with BT-549 breast and in the assay on A549 NSCLC was more than 100 µM throughout. Besides, the TGI with SK-OV-3 ovarian, in the assay with CAKI-1 renal, in the assay on SNB-19 CNS and in the assay on SN12C renal was more than 100 µM each time.
Consider `CC(C)C1=C(O)C2=C(C(=O)C1=O)C1(C)CCCC(C)(C)C1C(O)C2OC=O` (stereo not given), for which the TGI in the assay with UACC-62 melanoma turned out to be 19.4 µM; in the assay on OVCAR-4 ovarian, 22.8 µM; in the assay on ACHN renal, 13.2 µM; in the assay with UACC-257 melanoma it was 21.6 µM; with BT-549 breast, 21.5 µM; in the assay with A549 NSCLC it was 35.8 µM. The TGI came out at 27.1 µM in the assay with SK-OV-3 ovarian, 11.7 µM in the assay with CAKI-1 renal, 31.7 µM with SNB-19 CNS and 23.2 µM in the assay on SN12C renal.
On to `C(=C\c1ccccc1)/COc1ccccc1C(N1CCOCC1)n1nc2ccccc2n1` (stereo not given), for which the TGI is 16.4 µM with UACC-62 melanoma; 57.9 µM in the assay on OVCAR-4 ovarian; 38.8 µM with ACHN renal; 25.5 µM with UACC-257 melanoma; 26.4 µM in the assay with BT-549 breast; more than 89.2 µM in the assay with A549 NSCLC. Besides, the TGI was 81.1 µM in the assay with SK-OV-3 ovarian, 43.7 µM with CAKI-1 renal, more than 63.1 µM with SNB-19 CNS and 24.1 µM in the assay on SN12C renal.
With `CC(C)[Si](OC/C(=C/COC(C)(C)C)[C@H]1CC=C(C(=O)c2ccccc2N2CN(C)C(=O)N(C)C2)C1)(C(C)C)C(C)C`, the TGI in the assay with UACC-62 melanoma amounted to 23.3 µM; in the assay with OVCAR-4 ovarian, 39.3 µM; in the assay on ACHN renal, 28.6 µM; with UACC-257 melanoma, 23.9 µM; in the assay with BT-549 breast it was 26.5 µM; in the assay on A549 NSCLC, 23 µM. Moreover, the TGI in the assay with SK-OV-3 ovarian came out at 31.2 µM; in the assay with CAKI-1 renal it was 23.5 µM; in the assay with SNB-19 CNS, 24.9 µM; in the assay with SN12C renal it was 24.9 µM.

The values are drawn from PubChem BioAssay (NCI).
